Measured values reported in ChEMBL document CHEMBL5244275, “Geminal Diheteroatomic Motifs: Some Applications of Acetals, Ketals, and Their Sulfur and Nitrogen Homologues in Medicinal Chemistry and Drug Design” (J Med Chem, 2021).
Values after ≈ are worked out from the molar mass of the structure shown.

Experiments:
[1] = Stability of the compound in 1M HCL buffer assessed as drug degradation by measuring rate constant by FRET-based assay; format: physicochemical
[2] = Half-life in human plasma; format: ADME
[3] = Stability of the compound in HCL solution assessed as compound hydrolysis by measuring relative rate constant by NMR analysis; format: physicochemical; details: buffer
[4] = Stability of the compound in 0.01 N HCL at pH 2.0 assessed as half-life; format: physicochemical
[5] = Chemical stability of the compound assessed as acid-catalyzed hydrolysis by measuring rate constant; format: physicochemical
Substance-P receptor = Substance-P receptor (Homo sapiens, UniProt P25103); assay: Displacement of [125I]-labeled SP from human NK-1 receptor expressed in CHO cells; format: cell-based
[6] = Oral bioavailability in human; format: ADME, organism-based; details: in vivo
[7] = Oral bioavailability in rat; format: ADME, organism-based; details: in vivo
[8] = Oral bioavailability in dog; format: ADME, organism-based, Canis lupus familiaris; details: in vivo
[9] = Stability of the compound assessed as compound hydrolysis by measuring rate constant by NMR spectroscopic analysis; format: physicochemical
[10] = Oral bioavailability in mouse; format: ADME, organism-based; details: in vivo
[11] = Dissociation constant, pKa of the compound; format: physicochemical
PC-6 = assay: Growth inhibition of human PC-6 cells; format: functional
[12] = Growth inhibition of human PC-12 cells; format: functional, PC12
[13] = Stability of the compound at pH 2 assessed as half-life; format: physicochemical; details: buffer

Substance-P receptor, sequence (P25103 whole entry): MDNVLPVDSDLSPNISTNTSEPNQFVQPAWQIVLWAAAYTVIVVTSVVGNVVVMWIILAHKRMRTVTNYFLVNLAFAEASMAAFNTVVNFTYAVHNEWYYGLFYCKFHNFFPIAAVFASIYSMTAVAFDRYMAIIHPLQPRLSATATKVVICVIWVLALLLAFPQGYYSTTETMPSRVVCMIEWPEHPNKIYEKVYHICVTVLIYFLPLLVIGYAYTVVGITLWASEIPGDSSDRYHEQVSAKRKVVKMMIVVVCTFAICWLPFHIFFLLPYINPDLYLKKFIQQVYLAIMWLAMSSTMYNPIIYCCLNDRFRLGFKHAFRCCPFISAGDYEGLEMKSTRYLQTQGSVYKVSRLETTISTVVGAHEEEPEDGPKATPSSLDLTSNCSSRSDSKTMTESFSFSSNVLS

COc1cc(/N=N/c2ccc([N+](=O)[O-])cc2)c(OC)cc1/N=N/c1ccc(N(C)CCCC(=O)NCCSC2CC(=O)N(CC3OCC(C(=O)NCCCNC(=O)c4ccc(C(=O)[O-])c(-c5c6ccc(=[N+](C)C)cc-6oc6cc(N(C)C)ccc56)c4)O3)C2=O)cc1 (centres undefined)
K [1]: 1.59 10^-6/s

N=C(N)NCCN1CCCCCCC1 [GUANETHIDINE]
half-life [2]: 36 h

c1ccc2c(c1)OC1(CCCCC1)O2
K [3]: 1

C[C@H]1[C@@H](CCCC(=O)O)O[C@@H]2O[C@@]3(C)CC[C@H]4[C@H](C)CC[C@@H]1[C@@]24OO3
half-life [4]: 165 h

CCC1(C)OCCCO1
K [3]: 3.7 10^6No_unit

C[C@H]1[C@@H](O[C@H](CCC(=O)O)c2ccc(Cl)cc2)O[C@@H]2O[C@@]3(C)CC[C@H]4[C@H](C)CC[C@@H]1[C@@]24OO3
half-life [4]: 13 h

c1ccc2c(c1)COC1(CCCCC1)OC2
K [3]: 3.3 10^6No_unit

Nc1ncnc2c1ncn2[C@@H]1O[C@H](CO)C[C@@H]1O
Drug metabolism [5]: 0.057 L/mol/min

C[C@H]1[C@@H](CCc2ccc(C(=O)O)cc2)O[C@@H]2O[C@@]3(C)CC[C@H]4[C@H](C)CC[C@@H]1[C@@]24OO3
half-life [4]: 165 h

COc1cccc(-n2nnnc2C(F)(F)F)c1[C@H]1CO[C@@]2(C1)OCCN[C@H]2c1ccc(F)cc1
IC50 (Substance-P receptor): 0.1 nM

Nc1nc(Cl)nc2c1ncn2[C@H]1C[C@H](O)[C@@H](CO)O1 [CLADRIBINE]
bioavailability [6]: 40%

Nc1ncnc2c1ncn2[C@H]1C[C@H](O)[C@@H](CO)O1 [DEOXYADENOSINE]
Drug metabolism [5]: 0.96 L/mol/min

c1ccc2c(c1)COC1(CCCCC1)O2
K [3]: 2.1 10^4No_unit

CCOC1(OCC)CCCCC1
K [3]: 1.3 10^10No_unit

c1cc([C@H]2CC[C@]3(CC2)OOC2(O3)C3CC4CC(C3)CC2C4)ccc1OCCN1CCOCC1 (some centres undefined)
bioavailability [7]: 76%

COC1(OC)OCCCO1
K [3]: 2.6 10^8No_unit

COC(=O)N[C@H](C(=O)N1CCC[C@H]1c1nc(-c2ccc(-c3ccc(-c4c[nH]c([C@@H]5CCCN5C(=O)[C@@H](NC(=O)OC)C(C)C)n4)cc3)cc2)c[nH]1)C(C)C
half-life [2]: 12 h

Nc1ncnc2c1ncn2[C@@H]1O[C@H](CO)C[C@H]1O [CORDYCEPIN]
Drug metabolism [5]: 0.012 L/mol/min

Nc1ncnc2c1ncn2[C@@H]1O[C@H](CO)[C@H](O)[C@H]1O
Drug metabolism [5]: 0.29 10^-3L/mol/min

COc1cc(/N=N/c2ccc([N+](=O)[O-])cc2)c(OC)cc1/N=N/c1ccc(N(C)CCCC(=O)NCCSC2CC(=O)N(CCC3OCC(C(=O)NCCCNC(=O)c4ccc(-c5c6ccc(=[N+](C)C)cc-6oc6cc(N(C)C)ccc56)c(C(=O)[O-])c4)O3)C2=O)cc1 (centres undefined)
K [1]: 4.61 10^-6/s

C1CCC2(CC1)OCCCO2
K [3]: 2.1 10^7No_unit

C[C@@H](c1c[nH]c2ccccc12)[C@H](C(=O)NC[C@H]1OC[C@H](N)CO1)N1CCN(CCC(c2ccccc2)c2ccccc2)C1=O
bioavailability [8]: 64%

CC(Cl)C1(C)CCC(C)(C)CC1 (centres undefined)
K [9]: 0

C=CC1(C)CCCCC1
K [9]: 9.9 10^-3No_unit

C=C(C)CN1C[C@H](OC[C@@]23C[C@@H]4[C@H](C)CC[C@H]4[C@@]4(C=O)C[C@@H]2C=C(C(C)C)[C@@]34C(=O)O)O[C@H](C)[C@@H](OC)C1
bioavailability [10]: 63%

CCC(C)n1ncn(-c2ccc(N3CCN(c4ccc(OCC5COC(Cn6cncn6)(c6ccc(Cl)cc6Cl)O5)cc4)CC3)cc2)c1=O (centres undefined) [ITRACONAZOLE]
pKa [11]: 3.7

Nc1ncnc2c1ncn2[C@@H]1O[C@H](CO)[C@@H](O)[C@H]1O [ADENOSINE]
Drug metabolism [5]: 0.82 10^-3L/mol/min

C=CC1(C)OCCO1
K [9]: 8.8 10^-4No_unit

CCOC1(OCC)OCCCO1
K [3]: 2.3 10^9No_unit

C[C@@H]1CC[C@H]2[C@@H](C)CO[C@@H]3O[C@@]4(C)CC[C@@H]1[C@]32OO4
half-life [4]: 165 h

C[C@@H](c1c[nH]c2ccccc12)[C@H](C(=O)NC[C@H]1OC[C@H](N)CO1)N1CCN(CCCc2ccccc2)C1=O
bioavailability [8]: 19%

CN(C)Cc1[nH]nnc1CN1CCO[C@@]2(CC[C@@H](c3ccccc3C(F)(F)F)CO2)[C@@H]1c1ccc(F)cc1
IC50 (Substance-P receptor): 1.1 nM

CN(C)Cc1[nH]nnc1CN1CCO[C@@]2(CC[C@@H](c3ccccc3OC(F)(F)F)CO2)[C@@H]1c1ccc(F)cc1
IC50 (Substance-P receptor): 1.4 nM

C[C@H]1[C@@H](OCc2ccc(C(=O)O)cc2)O[C@@H]2O[C@@]3(C)CC[C@H]4[C@H](C)CC[C@@H]1[C@@]24OO3
half-life [4]: 11 h

CC(=O)O[C@@]12CO[C@@H]1CC[C@@]1(C)[C@@H]3O[C@H](CN(C)C)O[C@@H]3C3=C(C)[C@@H](OC(=O)[C@H](O)[C@@H](NC(=O)OC(C)(C)C)c4ncccc4F)C[C@@](O)([C@@H](OC(=O)c4ccccc4)[C@@H]12)C3(C)C [TESETAXEL]
GI50 (PC-6): 0.38 ng/mL (≈ 0.431 nM) | GI50 [12]: 0.62 ng/mL (≈ 0.703 nM)

Cn1c(=O)c2c(ncn2CC2OCCO2)n(C)c1=O [DOXOFYLLINE]
bioavailability [6]: 63% | half-life [2]: 7 h

Nc1ncnc2c1ncn2[C@H]1CC[C@@H](CO)O1
Drug metabolism [5]: 35 L/mol/min

Nc1ccn([C@H]2CC[C@@H](CO)O2)c(=O)n1 [ZALCITABINE]
bioavailability [6]: 80%

C=CC1(C)CCC(C)(C)CC1
K [9]: 7.33 10^-4No_unit

N=C(N)NCC1COC2(CCCCC2)O1 (centres undefined)
half-life [2]: 12 h

CCCC[C@H]1O[C@@H]2O[C@@]3(C)CC[C@H]4[C@H](C)CC[C@@H]([C@H]1C)[C@@]24OO3
half-life [4]: 165 h

CC(=O)O[C@H]1C(=O)[C@@]2(C)[C@H]([C@H](OC(=O)c3ccccc3)[C@]3(O)C[C@H](OC(=O)[C@H](O)[C@@H](NC(=O)c4ccccc4)c4ccccc4)C(C)=C1C3(C)C)[C@]1(OC(C)=O)CO[C@@H]1C[C@@H]2O [PACLITAXEL]
GI50 (PC-6): 1.27 ng/mL (≈ 1.49 nM) | GI50 [12]: 539 ng/mL (≈ 631 nM)

CC(=O)O[C@@]12CO[C@@H]1CC[C@@]1(C)[C@H]3OC(C)(C)O[C@@H]3C3=C(C)[C@@H](OC(=O)[C@H](O)[C@@H](NC(=O)OC(C)(C)C)c4ccccn4)C[C@@](O)([C@@H](OC(=O)c4ccccc4)[C@@H]12)C3(C)C
GI50 (PC-6): 0.33 ng/mL (≈ 0.395 nM) | GI50 [12]: 0.15 ng/mL (≈ 0.18 nM)

C1CCC2(CC1)OCCCCO2
K [3]: 1 10^8No_unit

C[C@H]1[C@@H](Cc2ccccc2)O[C@@H]2O[C@@]3(C)CC[C@H]4[C@H](C)CC[C@@H]1[C@@]24OO3
half-life [4]: 165 h

COC1(C)OCCCO1
K [3]: 2.4 10^9No_unit

CC(Cl)C1(C)CCCCC1 (centres undefined)
K [9]: 2.25 10^-6No_unit

C[C@H]1[C@@H](CCCCC(=O)O)O[C@@H]2O[C@@]3(C)CC[C@H]4[C@H](C)CC[C@@H]1[C@@]24OO3
half-life [4]: 165 h

COC1OCCCO1
K [3]: 9.3 10^4No_unit

CCC1OCCCO1
K [3]: 1 10^2No_unit

O=C(O)CCC/C=C\C[C@@H]1CO[C@H](C(F)(F)F)O[C@@H]1c1ccccc1O
t1/2 [13]: 7 yr

FC1CCN(CCc2ccc(C3CCC4(CC3)OOC3(OO4)C4CC5CC(C4)CC3C5)cc2)CC1 (centres undefined)
bioavailability [10]: 82% | bioavailability [8]: 40% | bioavailability [7]: 62%

Fc1ccc([C@@H]2NCCO[C@]23CC[C@H](c2ccccc2C(F)(F)F)CO3)cc1
IC50 (Substance-P receptor): 400 nM

C1CCC2(CC1)OCCO2
K [3]: 5.4 10^5No_unit

c1ccc2c(c1)CCOC1(CCCCC1)O2
K [3]: 1.3 10^8No_unit

Nc1nc2c(ncn2[C@H]2C=C[C@@H](CO)O2)c(=O)[nH]1
half-life [13]: < 120 s

CC(=O)O[C@@]12CO[C@@H]1CC[C@@]1(C)[C@@H]3O[C@H](CN4CCOCC4)O[C@@H]3C3=C(C)[C@@H](OC(=O)[C@H](O)[C@@H](NC(=O)OC(C)(C)C)c4ncccc4F)C[C@@](O)([C@@H](OC(=O)c4ccccc4)[C@@H]12)C3(C)C
GI50 (PC-6): 0.29 ng/mL (≈ 0.314 nM) | GI50 [12]: 0.14 ng/mL (≈ 0.152 nM)

COC(=O)N[C@H](C(=O)N1CCC[C@H]1c1ncc(-c2ccc(-c3ccc(-c4cnc([C@@H]5CC6(CN5C(=O)[C@@H](NC(=O)OC)C(C)C)OCCO6)[nH]4)cc3)cc2)[nH]1)C(C)C
half-life [2]: 8 h

Fc1ccc([C@@H]2NCCO[C@@]23CC[C@@H](c2ccccc2C(F)(F)F)CO3)cc1
IC50 (Substance-P receptor): 28 nM

CC1(C)OC[C@@H](C/C=C\CCCC(=O)O)[C@@H](c2ccccc2O)O1
half-life [13]: 56 s

Fc1ccc([C@@H]2NCCO[C@@]23C[C@@H](c2ccccc2C(F)(F)F)CO3)cc1
IC50 (Substance-P receptor): 24 nM

CC(=O)O[C@@]12CO[C@@H]1C[C@H](O)[C@@]1(C)C(=O)[C@H](O)C3=C(C)[C@@H](OC(=O)[C@H](O)[C@@H](NC(=O)OC(C)(C)C)c4ccccc4)C[C@@](O)([C@@H](OC(=O)c4ccccc4)[C@H]21)C3(C)C [DOCETAXEL ANHYDROUS]
GI50 (PC-6): 1.48 ng/mL (≈ 1.83 nM) | GI50 [12]: 42.2 ng/mL (≈ 52.2 nM)

C1COCOC1
K [3]: 1

Nc1ncnc2c1ncn2[C@@H]1O[C@H](CO)[C@H](O)[C@@H]1O
Drug metabolism [5]: 9.6 10^-3L/mol/min

Nc1ccn([C@@H]2O[C@H](CO)[C@@H](O)[C@@H]2O)c(=O)n1 [CYTARABINE]
bioavailability [6]: 20%

CC(Cl)C1(C)OCCO1 (centres undefined)
K [9]: 0
